Results on two compounds are retold here after patent US11007191B2, “Pharmaceutical compositions and dosage forms” (IGNYTA, INC., priority 2017, dated 2021).

As a reminder, the solubility is the dissolved amount per volume that the medium holds.

In brackets after ≈: the same amount, converted by molar mass.

Data set [1] can be described thus: gastric-to-intestinal (GB/IB) two-stage dissolution test. Format: physicochemical. The note with it: Example 5, GB stage, 75 mL 0.01M HCl, 100 mg nominal dose.
Experimental: A two-stage dissolution test was also conducted on all four coating weights to determine if gastric exposure affected performance.
Gastric-to-intestinal (GB-IB) non-sink dissolution test: The formulation having a 50% theoretical coating weight was tested in a GB-IB non-sink dissolution test as described in the table below:
Data set [2] in a line: non-sink dissolution in pH 6.5 PBS with 0.5% SIF, USP Apparatus II. The data set is classed as physicochemical. As to conditions: Example 5; 1 mg/mL in PBS pH 6.5 with 0.5% SIF, 37° C., 250 rpm. The procedure: The performance of all four coating weights was evaluated by dissolution in pH 6.5 phosphate buffered saline (PBS) containing 0.5% SIF powder.
The test system of data set [3] is various forms of cancer having at least one molecular alteration in one or more of ALK, ROS1, TrkA, TrkB and TrkC. The note with it: early clinical studies, patients with alteration in ALK; cited from earlier work.
Data set [4] can be described thus: single-dose food effect study in dogs. The data set is classed as in vivo, dog. The note with it: formulation that did not comprise at least one polymer. From the text:
Such food effects can cause difficulty during human testing of drugs as the fed or fasted condition of the patient can cause exposure or bioavailability of drugs to vary widely.

Data set [5] can be described thus: amorphous solubility in pH 6.5 PBS containing 0.5% SIF. The note with it: phosphate buffered saline with 0.5% SIF powder, fassif; pH 6.5 PBS containing 0.5% SIF powder; read-out: approximate amorphous solubility. Format: physicochemical.
Data set [6] in a line: solubility in solvents for fluid bed coating. Format: physicochemical. The procedure:
The solutions included 80/20 acetone/water, 95/5 acetone/water, 90/10 acetone/water, methyl ethyl ketone, acetone and methanol at 40° C. […] The lab temperature was monitored and ranged from 17° C. to 25° C., fluctuating with time of day during testing.

The next data set deals with TrkC (Homo sapiens, UniProt Q16288). As to conditions: background statement; cited from earlier work.
Sequence of TrkC (Q16288 32-839): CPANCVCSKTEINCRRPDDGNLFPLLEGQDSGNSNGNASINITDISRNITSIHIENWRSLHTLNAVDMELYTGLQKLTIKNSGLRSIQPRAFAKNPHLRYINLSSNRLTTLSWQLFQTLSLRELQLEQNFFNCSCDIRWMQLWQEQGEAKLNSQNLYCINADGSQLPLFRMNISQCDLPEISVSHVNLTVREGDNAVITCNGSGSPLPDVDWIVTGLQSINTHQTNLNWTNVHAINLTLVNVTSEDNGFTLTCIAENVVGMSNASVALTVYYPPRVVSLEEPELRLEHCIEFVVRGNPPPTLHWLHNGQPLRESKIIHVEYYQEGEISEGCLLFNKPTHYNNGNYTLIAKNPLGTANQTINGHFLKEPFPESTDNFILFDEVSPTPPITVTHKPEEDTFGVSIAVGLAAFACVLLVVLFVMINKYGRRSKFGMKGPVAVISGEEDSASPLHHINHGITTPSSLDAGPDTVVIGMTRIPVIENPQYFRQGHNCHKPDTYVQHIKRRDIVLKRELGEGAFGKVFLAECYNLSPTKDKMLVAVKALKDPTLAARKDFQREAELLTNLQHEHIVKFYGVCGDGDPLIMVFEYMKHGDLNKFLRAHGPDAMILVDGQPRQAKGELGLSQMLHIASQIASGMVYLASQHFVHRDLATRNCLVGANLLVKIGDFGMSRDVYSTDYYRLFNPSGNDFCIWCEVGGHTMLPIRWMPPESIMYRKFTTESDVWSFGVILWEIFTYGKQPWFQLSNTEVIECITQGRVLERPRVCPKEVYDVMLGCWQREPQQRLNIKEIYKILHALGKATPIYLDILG
Another data set deals with TrkB (Homo sapiens, UniProt Q16620). The note with it: background statement; cited from earlier work.
Sequence of TrkB (Q16620 32-822): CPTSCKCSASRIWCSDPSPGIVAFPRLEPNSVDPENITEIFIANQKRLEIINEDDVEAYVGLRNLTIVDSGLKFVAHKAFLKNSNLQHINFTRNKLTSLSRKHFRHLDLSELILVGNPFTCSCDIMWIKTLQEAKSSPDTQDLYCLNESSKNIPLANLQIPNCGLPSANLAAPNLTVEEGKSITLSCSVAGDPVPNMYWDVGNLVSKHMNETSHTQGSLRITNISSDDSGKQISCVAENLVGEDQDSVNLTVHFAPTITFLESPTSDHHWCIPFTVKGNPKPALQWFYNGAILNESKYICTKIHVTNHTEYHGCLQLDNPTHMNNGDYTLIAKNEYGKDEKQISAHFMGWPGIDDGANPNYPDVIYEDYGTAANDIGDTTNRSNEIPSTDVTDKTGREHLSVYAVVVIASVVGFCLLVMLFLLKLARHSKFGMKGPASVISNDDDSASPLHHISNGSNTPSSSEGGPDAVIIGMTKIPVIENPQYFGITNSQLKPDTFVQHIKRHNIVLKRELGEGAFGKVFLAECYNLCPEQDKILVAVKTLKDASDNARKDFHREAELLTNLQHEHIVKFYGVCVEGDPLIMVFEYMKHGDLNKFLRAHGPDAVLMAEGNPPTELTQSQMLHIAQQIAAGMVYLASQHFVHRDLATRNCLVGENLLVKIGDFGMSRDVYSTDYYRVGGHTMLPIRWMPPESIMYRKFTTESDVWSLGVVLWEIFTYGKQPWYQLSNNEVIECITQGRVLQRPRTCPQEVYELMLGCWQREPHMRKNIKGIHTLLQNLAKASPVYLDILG
The target of data set [7] is anaplastic lymphoma kinase (ALK) (Homo sapiens, UniProt Q9UM73). The note with it: background statement; cited from earlier work.
Sequence of anaplastic lymphoma kinase (ALK) (Q9UM73 19-1620): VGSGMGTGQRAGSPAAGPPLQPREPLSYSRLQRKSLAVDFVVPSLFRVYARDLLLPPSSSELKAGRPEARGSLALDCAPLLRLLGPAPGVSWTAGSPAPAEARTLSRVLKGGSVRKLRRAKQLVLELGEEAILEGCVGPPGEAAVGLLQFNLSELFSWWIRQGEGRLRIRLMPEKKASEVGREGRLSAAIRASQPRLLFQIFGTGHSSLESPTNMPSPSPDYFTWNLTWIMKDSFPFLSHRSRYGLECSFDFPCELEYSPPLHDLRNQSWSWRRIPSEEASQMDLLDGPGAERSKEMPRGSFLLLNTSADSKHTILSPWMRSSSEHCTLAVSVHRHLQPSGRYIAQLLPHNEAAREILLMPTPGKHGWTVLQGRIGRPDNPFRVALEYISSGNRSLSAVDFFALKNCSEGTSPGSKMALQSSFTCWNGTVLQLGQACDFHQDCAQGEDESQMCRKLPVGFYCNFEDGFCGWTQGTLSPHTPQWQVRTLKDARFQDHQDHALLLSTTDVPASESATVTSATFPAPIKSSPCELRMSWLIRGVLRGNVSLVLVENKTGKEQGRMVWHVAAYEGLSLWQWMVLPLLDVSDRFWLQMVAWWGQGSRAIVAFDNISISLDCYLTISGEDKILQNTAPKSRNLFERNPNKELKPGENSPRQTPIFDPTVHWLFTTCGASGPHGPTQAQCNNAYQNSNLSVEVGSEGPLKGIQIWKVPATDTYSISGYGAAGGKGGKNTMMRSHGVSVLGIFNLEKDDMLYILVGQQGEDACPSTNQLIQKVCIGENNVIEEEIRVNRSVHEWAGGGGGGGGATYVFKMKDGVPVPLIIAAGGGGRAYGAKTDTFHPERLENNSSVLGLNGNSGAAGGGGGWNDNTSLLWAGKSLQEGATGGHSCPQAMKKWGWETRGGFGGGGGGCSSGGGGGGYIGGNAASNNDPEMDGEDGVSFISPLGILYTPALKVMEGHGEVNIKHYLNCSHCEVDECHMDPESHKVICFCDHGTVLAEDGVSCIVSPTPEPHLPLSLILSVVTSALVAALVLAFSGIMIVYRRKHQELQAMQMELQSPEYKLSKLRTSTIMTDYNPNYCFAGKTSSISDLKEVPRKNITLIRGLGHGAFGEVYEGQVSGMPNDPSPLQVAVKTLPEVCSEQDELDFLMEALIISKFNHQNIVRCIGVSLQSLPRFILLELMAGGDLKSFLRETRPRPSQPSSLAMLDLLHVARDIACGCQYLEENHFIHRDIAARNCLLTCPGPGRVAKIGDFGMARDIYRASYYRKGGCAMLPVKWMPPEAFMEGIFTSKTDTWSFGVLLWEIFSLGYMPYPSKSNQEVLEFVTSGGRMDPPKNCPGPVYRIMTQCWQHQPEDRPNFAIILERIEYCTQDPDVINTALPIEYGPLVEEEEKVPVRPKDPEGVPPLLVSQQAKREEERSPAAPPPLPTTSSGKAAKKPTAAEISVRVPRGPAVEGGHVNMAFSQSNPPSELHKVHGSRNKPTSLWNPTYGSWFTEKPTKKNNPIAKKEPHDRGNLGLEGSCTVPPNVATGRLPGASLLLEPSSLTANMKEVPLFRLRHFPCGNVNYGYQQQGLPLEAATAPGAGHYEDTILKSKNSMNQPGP

Take `CN1CCN(c2ccc(C(=O)Nc3n[nH]c4ccc(Cc5cc(F)cc(F)c5)cc34)c(NC3CCOCC3)c2)CC1` [API, N-[5-(3,5-difluorobenzyl)-1H-indazol-3-yl]-4-(4-methyl-piperazin-1-yl)-2-(tetrahydro-2H-pyran-4-ylamino)-benzamide]: the “dose reached in the pH 2.0 media” value in data set [1] is given as “full dose”. Further, the “dose released within about 75 minutes” value in data set [2] was “about 15%”.
As to `CN1CCN(c2ccc(C(=O)Nc3n[nH]c4ccc(Cc5cc(F)cc(F)c5)cc34)c(NC3CCOCC3)c2)CC1` [N-[5-(3,5-difluorobenzyl)-1H-indazol-3-yl]-4-(4-methyl-piperazin-1-yl)-2-(tetrahydro-2H-pyran-4-ylamino)-benzamide], the “antitumor effects in patients” value in data set [3] is given as “antitumor effects”. Besides, in [4], the “exposure levels under fed conditions compared to fasting conditions” value is “approximately 2 fold”. In addition, the solubility in data set [5] is ~1000 µg/mL (≈ 1780 µM). The “solubility in acetone/water solutions” value in data set [6] (80/20, 95/5, 90/10 acetone/water, for 24 hours, lab temperature 17-25° C.) was “greater than mg/mL”. The “time until completely dissolved in acetone/water solutions” value in [6] (approximately 170 mg per mL of solvent) was ≤ 30 min. For the same compound, the “inhibition of TrkC” value on TrkC is “potent inhibitor”. Further, the “inhibition of TrkB” value on TrkB is recorded as “potent inhibitor”. The “inhibition of ALK” value in data set [7] is on record as “potent inhibitor”.
